Like-named read-outs stand apart in the source and are kept apart here. Where a SMILES comes first, the peptide text is derived from it. [ ]: non-standard residue; d: D form. The star is where a group is joined. Nva = CCC[C@H](N)C(=O)O; Cbz = O=C(OCc1ccccc1)*; OtBu = CC(C)(C)O*

Consider five molecules from US6838436B1, “Inhibitors of proteasomal activity for stimulating bone growth” (Osteoscreen Inc., priority 1998, dated 2005).

The subject of one assay is hair follicles. Put plainly: Hair follicle number after injection over the calvaria (Example 8). It counts as in vivo, Swiss ICR mice. As to conditions: for number of hair follicles: administered in the same way. An excerpt: The assay described above to assess the effect of compounds on calvarial bone growth can also be used to assess the ability of compounds to stimulate hair growth. The test compound or appropriate control vehicle is applied to the upper and lower back of male ICR Swiss white mice either topically or by subcutaneous injection. The vehicle is selected as appropriate for the compound to be tested and for the route of administration. Optionally, the hair in the test area may be removed prior to administration. After a suitable interval, typically 7 days, the mice are anesthetized and a biopsy of the dorsal treatment area is taken using a 6 mm dermal punch. The specimens are fixed in 10% buffered formalin and imbedded in paraffin wax, and sectioned and stained to observe hair follicles. In addition, photography can be used to observe and record hair growth; typically such growth is observed after 14-18 days. After a suitable interval, typically 21 days, the animals may be euthanized and the hair analyzed for fiber analysis and the tissue from the treatment area analyzed for quantitation of hair follicles.
In more detail, male ICR Swiss white mice, aged 4-6 weeks and weighing 13-26 gm, are employed, using 4-5 mice per group. The calvarial bone growth assay is performed as described above. Briefly, the test compound or appropriate control vehicle is injected into the subcutaneous tissue over the right calvaria of normal mice. Typically, the control vehicle is the vehicle in which the compound was solubilized, and is PBS containing 5% DMSO or is PBS containing Tween (2 μl/10 ml). The animals are sacrificed on day 14 and bone growth measured by histomorphometry. Bone samples for quantitation are cleaned from adjacent tissues and fixed in 10% buffered formalin for 24-48 hours, decalcified in 14% EDTA for 1-3 weeks, processed through graded alcohols; and embedded in paraffin wax. Three to five […] sections of the calvaria are prepared, and representative sections are selected for histomorphometric assessment of the effects on bone formation and bone resorption. Sections are measured by using a camera lucida attachment to trace directly the microscopic image onto a digitizing plate. Bone changes are measured on sections cut 200 μm apart, over 4 adjacent 1×1 mm fields on both the injected and noninjected sides of the calvaria. New bone is identified by its characteristic woven structure, and osteoclasts and osteoblasts are identified by their distinctive morphology. Histomorphometry software (OsteoMeasure, Osteometrix, Inc., Atlanta) is used to process digitizer input to determine cell counts and measure areas or perimeters.
The in vivo bone calvarial growth assay of Example 3 was modified to observe the number of hair follicles in treated mice. […]

The target of assay [1] is T1, 20S thermophila proteasome (Methanosarcina thermophila, UniProt Q9P992).
T1 construct: purchased CalBiochem, San Diego, Calif
T1 sequence (Q9P992 10-210): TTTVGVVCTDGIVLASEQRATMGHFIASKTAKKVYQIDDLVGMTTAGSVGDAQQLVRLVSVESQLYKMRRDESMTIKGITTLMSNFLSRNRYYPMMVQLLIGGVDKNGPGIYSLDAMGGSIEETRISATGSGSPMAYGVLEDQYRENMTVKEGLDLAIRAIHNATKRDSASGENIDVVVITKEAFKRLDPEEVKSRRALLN
T1 sequence (Q59565 1-247 partner): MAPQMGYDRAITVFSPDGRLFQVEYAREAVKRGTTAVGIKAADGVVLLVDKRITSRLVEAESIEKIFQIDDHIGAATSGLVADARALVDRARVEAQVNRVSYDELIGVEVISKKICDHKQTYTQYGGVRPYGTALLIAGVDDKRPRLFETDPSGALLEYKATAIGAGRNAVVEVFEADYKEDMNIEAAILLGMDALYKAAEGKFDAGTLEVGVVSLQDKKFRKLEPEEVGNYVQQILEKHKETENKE
Put plainly: biochemical. The method, then: The assay involves incubating the potential inhibitor with 20S thermophila proteasomes which, in purified form, are commercially available, with a fluorogenic peptide substrate. The presence of an inhibitor will reduce the amount of fluorescence generated by the action of the proteasome fraction on the fluorogenic peptide. This assay is described in further detail in Coux, O., et al., N Rev Biochem (1996) 65:801; Adams, J., et al., Cancer Res (1999) 59:2615; and Craiu, A., et al., J Biol Chem (1997) 272:13437. Further reports are set forth in Hilt, W., et al., Trans Biochem Sci (1996) 21:96; Peters, J., Trends Biochem Sci (1994) 19:377; Maupin-Furlow, J. A., et al., J Biol Chem (1995) 270:28617; and Jensen, T. J., et al., Cell (1995) 83:129. Fluorogenic substrates and purified proteasomes are available, for example, from CalBiochem, San Diego, Calif.
Purified 20S thermophila proteasomes and the fluorogenic peptide substrate Suc-Leu-Leu-Val-Tyr-AMC (SEQ ID NO:3) are available from CalBiochem, San Diego, Calif. Briefly, serial dilutions of the inhibitor to be tested were mixed with proteasome solution at a concentration of proteasome of 0.01 mg/ml. After 30 min incubation at 37° C., substrate solution at a final concentration of 25-30 μg/ml was added and the mixture incubated at 37° C. and then read at 15 min, 30 min, and 60 min in a Fluoroscan instrument. The percentage diminution in fluorescence in the presence as compared to the absence of inhibitor is then calculated.

[2] abbreviates: read-out: % Proteasomal Activity.
[3] abbreviates: read-out: Proteasome Activity (ED50-μM).

On to `CC(C)C[C@@H](C=O)NC(=O)[C@@H](CC(C)C)NC(=O)[C@H](CC(C)C)NC(=O)OCc1ccccc1` [MG-132, N-carbobenzoyl-Leu-Leu-Leu-CHO] (Cbz-Leu-[dL]-Leu-aldehyde), for which the “number of hair follicles” value with hair follicles (10 mg/kg) is reported as “stimulated an increase in the number of hair follicles”. In assay [1] (setting [2]), the remaining activity at 0.002 µM was found to be 101%, the remaining activity at 0.004 µM came to 99%, the remaining activity at 0.008 µM was 101% and the remaining activity at 0.016 µM came out at 100%. In addition, in assay [1] (setting [2]), the remaining activity at 0.032 µM was found to be 98%, the remaining activity at 0.062 µM worked out at 90%, the remaining activity at 0.125 µM was determined as 87% and the remaining activity at 0.25 µM is 73%. In addition, in assay [1] (setting [2]), the remaining activity at 0.5 µM was found to be 57%, the remaining activity at 1 µM was determined as 44% and the remaining activity at 2 µM came to 19%. Further, the EC50 in assay [1] (setting [3]) was 0.3 µM.
On to `CCC[C@@H](C=O)NC(=O)[C@H](CC(C)C)NC(=O)[C@H](CC(C)C)NC(=O)OCc1ccccc1` [MG-115, N-carbobenzoyl-Leu-Leu-Nva-CHO] (Cbz-Leu-Leu-[Nva]-aldehyde), for which, in the assay with hair follicles (10 mg/kg), the “number of hair follicles” value is “stimulated an increase in the number of hair follicles”. The EC50 in assay [1] (setting [3]) was 1 µM.
For orientation: IC50 means the concentration that inhibits the measured activity by half. Higher therefore signals weaker potency in that assay. On to `CC[C@H](C)[C@H](NC(=O)[C@H]([C@@H](C)CC)N(C)C(C)=O)C(=O)N[C@H](C(=O)N[C@@H](CC(C)C)C(=O)[C@@]1(C)CO1)[C@@H](C)O` [Epoxomicin], for which the IC50 in assay [1] is roughly 60 nM.
Turning to `CC[C@H](C)[C@H](NC(=O)OCc1ccccc1)C(=O)N[C@@H](CCC(=O)OC(C)(C)C)C(=O)N[C@@H](C)C(=O)N[C@H](C=O)CC(C)C` [PSI, N-carbobenzoyl-Ile-Glu-(OtBu)-Ala-Leu-CHO] (Cbz-IE(OtBu)AL-aldehyde), the “number of hair follicles versus control mice” value with hair follicles (5mg/kg/day injected three times a day for 5 days over the calvaria, sacrificed sixteen days later) is recorded as “strikingly large increase in the number of hair follicles”. In assay [1], this molecule displayed an EC50 of 0.035 µM and a half-maximal inhibitory concentration (IC50) of roughly 60 nM. In assay [1] (setting [2]), the remaining activity at 0.002 µM turned out to be 100%, the remaining activity at 0.004 µM was found to be 95%, the remaining activity at 0.008 µM turned out to be 94% and the remaining activity at 0.016 µM was 86%. Further, in assay [1] (setting [2]), the remaining activity at 0.032 µM was 76%, the remaining activity at 0.062 µM worked out at 54%, the remaining activity at 0.125 µM turned out to be 30% and the remaining activity at 0.25 µM is 11%. Moreover, in assay [1] (setting [2]), the remaining activity at 0.5 µM came to 6% and the remaining activity at 1 µM was 5%.
For the molecule `CC(=O)N[C@@H](CSC(=O)[C@]1([C@@H](O)C(C)C)NC(=O)[C@H](C)[C@@H]1O)C(=O)O` [Lactacystin, lactacystin], the “number of hair follicles” value in the assay on hair follicles (dose not given) was “stimulated an increase in the number of hair follicles”. The same molecule returned an EC50 in assay [1] of 1.5 µM.
